Data set [1] has as its target T1, Mas-related G-protein coupled receptor member X1 (Homo sapiens, UniProt Q96LB2). Kind of data set: Agonist activity at human MrgX1 receptor at 10 uM relative to BAM22. It counts as functional.
The species entered for data set [2] is Macaca mulatta. The data set can be described thus: Agonist activity at monkey MrgX2 receptor at 10 uM relative to cortistatin-14. It counts as functional.
Data set [3] in a line: Agonist activity at monkey MrgX2 receptor. Format: functional, Macaca mulatta.
The target of data set [4] is T2, Mas-related G-protein coupled receptor member X2 (Homo sapiens) (UniProt Q96LB1).
T2 sequence (whole entry): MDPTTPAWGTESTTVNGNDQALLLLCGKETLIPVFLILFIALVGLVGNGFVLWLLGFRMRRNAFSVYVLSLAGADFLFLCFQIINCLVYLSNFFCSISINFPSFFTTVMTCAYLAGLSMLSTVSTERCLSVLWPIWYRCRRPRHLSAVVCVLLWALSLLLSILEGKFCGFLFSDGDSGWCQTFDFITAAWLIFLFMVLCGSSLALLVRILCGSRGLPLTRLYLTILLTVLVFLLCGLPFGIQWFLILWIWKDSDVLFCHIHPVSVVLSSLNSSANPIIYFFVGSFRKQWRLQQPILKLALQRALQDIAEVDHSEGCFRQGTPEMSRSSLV
Kind of data set: Agonist activity at human MrgX2 receptor at 10 uM relative to cortistatin-14. Format: functional.

Data set [5] in a line: Agonist activity at monkey MrgX1 receptor. It counts as functional, Macaca mulatta.
Data set [6] deals with T1, Mas-related G-protein coupled receptor member X1. Kind of data set: Agonist activity at human MrgX1 receptor. It counts as functional.
Data set [7] is filed under the species Macaca mulatta. The data set can be described thus: Agonist activity at monkey MrgX1 receptor at 10 uM relative to BAM22. It counts as functional.
Data set [8] has as its target T3, Mas-related G-protein coupled receptor member X2 (Homo sapiens, UniProt Q96LB1).
T3 sequence (Q96LB1 whole entry): T2 sequence (whole entry)
The data set can be described thus: Agonist activity at human MrgX2 receptor. Format: functional.

The target of data set [9] is T1, Mas-related G-protein coupled receptor member X1. Kind of data set: Agonist activity at MrgX1 receptor by calcium mobilization assay. It counts as functional.
Data set [10] can be described thus: Metabolic stability in human liver microsome assessed as intrinsic clearance. Format: ADME. As to conditions: liver microsomes.

Structures are written as SMILES. Calls of active or inactive are those of the source. The rule behind the calls is not given here. Bridge positions count the residues as written; N and C are the ends. Square brackets hold non-standard residues; d marks the D form. Peptide text beside a SMILES is read from it.

T1 sequence (Q96LB2 whole entry): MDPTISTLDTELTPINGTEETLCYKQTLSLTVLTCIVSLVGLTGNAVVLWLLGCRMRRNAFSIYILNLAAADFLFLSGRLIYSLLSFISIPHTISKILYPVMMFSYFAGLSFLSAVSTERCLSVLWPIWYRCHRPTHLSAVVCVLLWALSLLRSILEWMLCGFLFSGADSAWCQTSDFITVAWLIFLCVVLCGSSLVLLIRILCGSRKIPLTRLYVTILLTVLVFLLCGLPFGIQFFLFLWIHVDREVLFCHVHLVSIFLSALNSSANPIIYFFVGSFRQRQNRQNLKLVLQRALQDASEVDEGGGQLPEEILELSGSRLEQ

As a reminder, the pEC50 is the EC50 on a negative log10 scale, so that one unit is a factor of ten. As a reminder, the EC50 is the concentration needed to bring the measured effect to its halfway point. With `CCC(C)[C@H]1C(=O)Nc2ccc(N3CCC(NC(C)=O)C3)cc2-c2nc3cc(C(=O)NCc4cccc(C(F)(F)F)c4)ccc3n21` (stereo partly specified), the Efficacy in data set [1] was 129%; in [2], 27%; in data set [4] it was 41%; in data set [7], 124%. Also, the pEC50 in data set [3] turned out to be 5.7; in [5] it was 6.4. Besides, the EC50 in data set [6] was 316 nM; in [8], 1260 nM.
Take `CC(C)[C@H]1C(=O)Nc2ccc(NC3CCCCCC3)cc2-c2nc3cc(C(=O)N4CCCN(C)CC4)ccc3n21`: the Efficacy result in [1] and in data set [7] was “inactive” each time. The Efficacy in data set [2] is 50%; in data set [4], 110%. The pEC50 in [3] stood at 6.4. In [8], this molecule had an EC50 of 316 nM.
With `CC(C)[C@H]1C(=O)Nc2ccc(NCc3ccccc3)cc2-c2nc3cc(C(=O)N(C)C4CCN(C)CC4)ccc3n21`, the Efficacy entry in [1] is “inactive”. This molecule also showed an Efficacy in [4] of 87%. In data set [8], this molecule showed an EC50 of 158 nM.
For orientation: microsomal CLint means the capacity of the preparation to metabolise the compound, expressed as a volume cleared per time. Regarding `CC(C)[C@H]1C(=O)Nc2ccc(N3CCN(Cc4ccccc4)CC3)cc2-c2nc3cc(C(=O)N(C)C4CCN(C)CC4)ccc3n21`, the Efficacy entry in data set [1] and in data set [7] was “inactive” in each case. In addition, the values for the Efficacy in [2] and in data set [4] were 133% and 216%, respectively. The same molecule returned a pEC50 in data set [3] of 6.7. Moreover, the result in [9] was Active. In addition, the microsomal CLint in data set [10] stood at 5 µL/min/mg. The molecule further showed an EC50 in data set [8] of 398 nM.
Regarding `CCC(C)[C@H]1C(=O)Nc2ccc(NCCCN(C)C)cc2-c2nc3cc(C(=O)NCc4cccc(C(F)(F)F)c4)ccc3n21` (stereo partly specified), the Efficacy in [1] was 147%; in data set [2], 85%; in data set [4], 103%; in data set [7], 157%. Moreover, the results for the pEC50 in [3] and in data set [5] were 5.4 and 6.1, respectively. The EC50 in data set [6] is 63.1 nM; in data set [8] it was 631 nM.
For the molecule `CCC(C)[C@H]1C(=O)Nc2ccc(NCCN3CCCCC3)cc2-c2nc3cc(C(=O)NCc4cccc(C(F)(F)F)c4)ccc3n21` (stereo partly specified), the Efficacy in data set [1] is 133%; in data set [4], 28%; in data set [7], 127%. Moreover, the Efficacy entry in [2] is “inactive”. In addition, the pEC50 in [5] was 6.1. Moreover, the EC50 in data set [6] is 200 nM; in [8], 2000 nM.
For the molecule `CC(=O)NC1CCN(c2ccc3c(c2)-c2nc4cc(C(=O)N5CCN(c6ccc(F)cc6)CC5)ccc4n2[C@@H](C(C)C)C(=O)N3)C1` (stereo partly specified), the Efficacy came out at 98% in [1] and 89% in data set [7]. Moreover, the Efficacy entry in data set [2] and in [4] was “inactive” in each case. The pEC50 in data set [5] was determined as 5.6. A half-maximal effect in data set [6] (EC50) was put at 2510 nM.
For the molecule `CC(C)[C@H]1C(=O)Nc2ccc(NCCN3CCCCC3)cc2-c2nc3cc(C(=O)N4CCN(c5ccc(F)cc5)CC4)ccc3n21`, the Efficacy in data set [1] came to 94%; in [7], 57%. Further, the Efficacy entry in [2] and in data set [4] was “inactive” each time. The same molecule came in with a pEC50 in [5] of 6. Moreover, the response in [6] was half-maximal at 1260 nM (EC50).
Turning to `CC(C)[C@H]1C(=O)Nc2ccc(NCCCN(C)C)cc2-c2nc3cc(C(=O)N4CCN(c5ccc(F)cc5)CC4)ccc3n21`, the Efficacy in data set [1] turned out to be 108%; in data set [4], 60%; in data set [7], 102%. In addition, the Efficacy result in data set [2] was “inactive”. The molecule further gave a pEC50 in [5] of 5.8. For the same molecule, the half-maximal effective concentration (EC50) in [6] is 631 nM.
As to `CCC(C)[C@H]1C(=O)Nc2ccc(NCCOCCOCCN)cc2-c2nc3cc(C(=O)NCc4cccc(C(F)(F)F)c4)ccc3n21` (stereo partly specified), the Efficacy worked out at 135% in [1] and 126% in data set [7]. The Efficacy result in data set [2] and in data set [4] was “inactive” each time. This molecule came in with a pEC50 in [5] of 6.1. In [6], this molecule gave an EC50 of 316 nM.
In the case of `CSCC[C@H](NC(=O)[C@H](Cc1ccccc1)NC(=O)CNC(=O)CNC(=O)[C@@H](N)Cc1ccc(O)cc1)C(=O)N[C@@H](CCCNC(=N)N)C(=O)N[C@@H](CCCNC(=N)N)C(=O)N[C@H](C(=O)NCC(=O)N[C@@H](CCCNC(=N)N)C(=O)N1CCC[C@H]1C(=O)N[C@@H](CCC(=O)O)C(=O)N[C@@H](Cc1c[nH]c2ccccc12)C(=O)N[C@@H](Cc1c[nH]c2ccccc12)C(=O)N[C@@H](CCSC)C(=O)N[C@@H](CC(=O)O)C(=O)N[C@@H](Cc1ccc(O)cc1)C(=O)N[C@@H](CCC(N)=O)C(=O)N[C@@H](CCCCN)C(=O)N[C@@H](CCCNC(=N)N)C(=O)N[C@@H](Cc1ccc(O)cc1)C(=O)NCC(=O)O)C(C)C`, the Efficacy is 100% in [1] and 50% in [7]. Besides, the Efficacy result in data set [2] and in [4] was “inactive” in each case. The molecule also had a pEC50 in [5] of 4.5. The same molecule had an EC50 in [6] of 794 nM.
`C[C@@H](O)[C@@H]1NC(=O)[C@H](CCCCN)NC(=O)[C@H](Cc2c[nH]c3ccccc23)NC(=O)[C@H](Cc2ccccc2)NC(=O)[C@H](Cc2ccccc2)NC(=O)[C@H](CC(N)=O)NC(=O)[C@H](CCCCN)NC(=O)[C@@H](NC(=O)[C@@H]2CCCN2)CSSC[C@@H](C(=O)N[C@@H](CCCCN)C(=O)O)NC(=O)[C@H](CO)NC(=O)[C@H](CO)NC(=O)[C@H](Cc2ccccc2)NC1=O` [CORTISTATIN-14] (H-PCKNFFWKTFSSCK-OH; disulfide 2-13) showed an EC50 in data set [8] of 501 nM.
In the case of `C[C@@H](O)[C@@H]1NC(=O)[C@@H](CCCCN)NC(=O)[C@H](Cc2c[nH]c3ccccc23)NC(=O)[C@H](Cc2ccccc2)NC(=O)[C@H](Cc2ccccc2)NC(=O)[C@H](CC(N)=O)NC(=O)[C@H](CCCCN)NC(=O)[C@@H](NC(=O)[C@@H]2CCCN2)CSSC[C@@H](C(=O)N[C@@H](CCCCN)C(=O)O)NC(=O)[C@H](CO)NC(=O)[C@H](CO)NC(=O)[C@@H](Cc2ccccc2)NC1=O` [CORTISTATIN-14] (H-PCKNFFW[dK]T[dF]SSCK-OH; disulfide 2-13), the Efficacy result in [1] and in data set [7] was “inactive” throughout. Moreover, the values for the Efficacy in [2] and in [4] were 86% and 100%, respectively. This molecule also returned a pEC50 in [3] of 6.1.

Source of the values: ChEMBL document CHEMBL1153297, “Discovery of non-peptidergic MrgX1 and MrgX2 receptor agonists and exploration of an initial SAR using solid-phase synthesis” (Bioorg Med Chem Lett, 2009).
